The supplement of paper PMC10307832

Legend:
Test in all cases: relative viability (nuclei count vs DMSO), 5 days (fraction); higher = more cells survive
KIN001-266 + Pemetrexed = compound: CCN1CCC(CC1)N2C=C(N=N2)CNC3=CC4=C(C(=CN=C4C(=C3)Cl)C#N)NC5=CC(=C(C=C5)F)Cl [KIN001-266] + Nc1nc2[nH]cc(CCc3ccc(C(=O)N[C@@H](CCC(=O)O)C(=O)O)cc3)c2c(=O)[nH]1 [Pemetrexed] (partner 0.2 µM)
Procedure, shortened: (§1)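 After 5 days of treatment, lung cancer cells in 1536-well plates were fixed and stained in a single step (final 0.05% Triton X-100, 1% formaldehyde, 1 ug/ml Hoechst) and their nuclei counted on 4× images. Treatment had been applied by pin tool the day after seeding as one drug alone or as a fixed anchor-drug dose with five library-drug doses (not always all listed) in √10 steps. Relative viability is the nuclei count of treated wells divided by that of vehicle wells, and values are medians of duplicate plates.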

KIN001-266 + Alpelisib = compound: CCN1CCC(CC1)N2C=C(N=N2)CNC3=CC4=C(C(=CN=C4C(=C3)Cl)C#N)NC5=CC(=C(C=C5)F)Cl [KIN001-266] + Cc1nc(NC(=O)N2CCC[C@H]2C(N)=O)sc1-c1ccnc(C(C)(C)C(F)(F)F)c1 [Alpelisib] (partner 2 µM)
Procedure, shortened: as §1

KIN001-266 + Foretinib = compound: CCN1CCC(CC1)N2C=C(N=N2)CNC3=CC4=C(C(=CN=C4C(=C3)Cl)C#N)NC5=CC(=C(C=C5)F)Cl [KIN001-266] + COc1cc2c(Oc3ccc(NC(=O)C4(C(=O)Nc5ccc(F)cc5)CC4)cc3F)ccnc2cc1OCCCN1CCOCC1 [Foretinib] (partner 0.25 µM)
Procedure, shortened: as §1

KIN001-266 + Olaparib = compound: CCN1CCC(CC1)N2C=C(N=N2)CNC3=CC4=C(C(=CN=C4C(=C3)Cl)C#N)NC5=CC(=C(C=C5)F)Cl [KIN001-266] + O=C(c1cc(Cc2n[nH]c(=O)c3ccccc23)ccc1F)N1CCN(C(=O)C2CC2)CC1 [Olaparib] (partner 8 µM)
Procedure, shortened: as §1

Cell Line	relative viability (KIN001-266 + Pemetrexed; first compound 0.08 µM)	relative viability (KIN001-266 + Pemetrexed; first compound 0.253 µM)	relative viability (KIN001-266 + Pemetrexed; first compound 0.8 µM)	relative viability (KIN001-266 + Pemetrexed; first compound 2.53 µM)	relative viability (KIN001-266 + Pemetrexed; first compound 8 µM)	relative viability (KIN001-266 + Alpelisib; first compound 0.08 µM)	relative viability (KIN001-266 + Alpelisib; first compound 0.253 µM)	relative viability (KIN001-266 + Alpelisib; first compound 0.8 µM)	relative viability (KIN001-266 + Alpelisib; first compound 2.53 µM)	relative viability (KIN001-266 + Alpelisib; first compound 8 µM)	relative viability (KIN001-266 + Foretinib; first compound 0.08 µM)	relative viability (KIN001-266 + Foretinib; first compound 0.253 µM)	relative viability (KIN001-266 + Foretinib; first compound 0.8 µM)	relative viability (KIN001-266 + Foretinib; first compound 2.53 µM)	relative viability (KIN001-266 + Foretinib; first compound 8 µM)	relative viability (KIN001-266 + Olaparib; first compound 0.08 µM)	relative viability (KIN001-266 + Olaparib; first compound 0.253 µM)	relative viability (KIN001-266 + Olaparib; first compound 0.8 µM)	relative viability (KIN001-266 + Olaparib; first compound 2.53 µM)	relative viability (KIN001-266 + Olaparib; first compound 8 µM)
NCI-H1755	0.394	0.459	0.334	0.407	0.433	1	0.895	0.95	0.843	0.816	0.96	0.913	0.894	0.862	0.83	0.933	0.865	0.896	0.864	0.815
NCI-H2087	0.646	0.716	0.637	0.581	0.587	1.06	1.02	1.04	1.06	0.758	1.22	1.17	1.09	1.15	0.962	0.616	0.494	0.654	0.374	0.346
NCI-H2228	0.329	0.325	0.35	0.322	0.352	0.757	0.95	0.771	0.549	0.622	0.76	0.733	0.82	0.89	0.602	0.692	0.735	0.682	0.727	0.496
NCI-H727						0.585	0.567	0.622	0.597	0.329	0.883	0.855	0.821	0.888	0.649	0.679	0.649	0.626	0.683	0.531
NCI-H650	1.15	0.988	1.09	1.02	0.946	1.12	1.08	1.33	1.09	1.14	1.07	1.02	0.98	1.04	0.988	0.452	0.381	0.349	0.336	0.34
NCI-H520	0.709	0.714	0.671	0.565	0.65	0.817	0.929	1.08	0.646	0.801	0.67	0.668	0.69	0.487	0.638	0.339	0.299	0.374	0.267	0.239
EBC-1						0.929	0.879	0.822	0.843	0.629	0.0963	0.1	0.105	0.128	0.117	0.76	0.72	0.635	0.649	0.511
NCI-H661	0.913	0.946	0.932	0.856	0.741	0.95	0.753	0.721	0.557	0.591	1.02	1	1.03	0.954	0.946	0.741	0.732	0.707	0.617	0.459
NCI-H1299						1.04	1.05	0.548	0.975	1.01	1.06	1.1	1.05	0.994	0.964	0.941	1.03	0.933	0.859	0.775
LK-2	0.275	0.237	0.211	0.158	0.273	1.3		1.17		1.11	1.12	1.31	1.2	1.03	1.28	0.879	0.689	0.672	0.557	0.574
NCI-H1648	0.641	0.791	0.66	0.626	0.758											1	0.711	0.816	0.55	0.996
NCI-H1650	0.371	0.409	0.412	0.338	0.36						1.25	0.951	0.947	0.773	0.476	0.708	0.751	0.655	0.587	0.437
SW 900	0.494	0.496	0.491	0.47	0.43						1.08	0.987	0.908	0.835	0.697	0.964	0.88	0.877	0.821	0.335
IA-LM						1.09	0.652	0.754	0.635	0.755	1.03	1.17	1.41	1.19	0.891	0.884	0.791	0.845	0.853	0.625
NCI-H1563	0.885	0.714	0.865	0.793	0.914	0.996	0.904	0.92	0.906	0.897	0.925	0.862	0.941	0.985	0.904					
HCC-44	0.678	0.651	0.607	0.592	0.642	0.806	0.838	0.805	0.868	0.651						0.994	0.959	0.944	0.884	0.993
NCI-H2342	0.785	0.738	0.619	0.705	0.91						1.09	1.04	1.17	1.15	1.07	0.547	0.4	0.427	0.407	0.419
ABC-1						1.23	1.08	1.09	0.812	0.976	1.02	1.12	1.1	1.08	0.873	0.737	0.583	0.767	0.795	0.863
NCI-H522	1.06	1.01	1.01	1.06	0.932											0.672	0.785	0.665	0.559	0.483
NCI-H1792	0.882	0.9	0.81	0.757	0.857	0.715	0.752	0.695	0.8	0.669						0.384	0.418	0.485	0.369	0.399
